Reference: article PMC8744835, “Sterically Hindered Quaternary Phosphonium Salts (QPSs): Antimicrobial Activity and Hemolytic and Cytotoxic Properties” (International Journal of Molecular Sciences, 2021)
Values belong to the compound of their own block, whether it stands above or below them.

Legend:
[1] = system: human erythrocytes; assay: Hemolytic activity; format: cell-based; settings: red blood cells
From the text: An important characteristic when assessing the biological activity of new chemical compounds is their cytotoxic effect on eukaryotic cells. The ability of an investigated compound to cause the destruction of human erythrocytes illustrates its toxic effect on the internal environment. The hemolysis assay is a simple screening test that can help in the study of cytotoxicity in more complex models. Cell lines obtained from various human organs and tissues that allow for adequate estimation of the effects of new potential drugs on cell metabolism can serve as experimental models.
The hemolytic activity of the QPSs was estimated by comparing the optical density of a solution containing the test compound with that of blood at 100% hemolysis. The experiments were carried out as previously described.

[2] = system: Chang liver cell line; assay: Cytotoxicity assay (Cytell Cell Imaging, DAPI/propidium iodide); format: cell-based, human; settings: for IC50: Homo sapiens, Chang liver, read-out: IC50 (concentration that causes the death of 50% of the cells), Chang liver cells; for IC50 (concentration that causes the death of 50% of the cells): Chang liver cells
[3] = system: Staphylococcus aureus ATCC 6538P FDA 209P; assay: Antimicrobial activity, serial dilution technique in Mueller–Hinton Broth 2; format: cell-based; settings: average of three ± SD, - means non-active; for MIC / MBC: Staphylococcus aureus, Sa; for MIC: read-out: Minimum Inhibitory Concentration (MIC), Sa; for MBC: read-out: Minimum Bactericidal and Fungicidal Concentration (MBC, MFC), Sa
Outline: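 Antimicrobial activity against Staphylococcus aureus ATCC 6538P FDA 209P was measured by serial dilution in Mueller–Hinton Broth 2 at a bacterial load of 3.0 × 10^5 cfu/mL. Cultures were incubated at 37 °C, growth was recorded every 24 h for 5 days, and the experiment was done three times.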

[4] = system: Bacillus cereus ATCC 10702 NCTC 8035; assay: as above; format: cell-based; settings: average of three ± SD, - means non-active; for MIC / MBC: Bacillus cereus, Bc; for MIC: read-out: Minimum Inhibitory Concentration (MIC), Bc; for MBC: read-out: Minimum Bactericidal and Fungicidal Concentration (MBC, MFC), Bc
Outline: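 Antibacterial activity against Bacillus cereus ATCC 10702 NCTC 8035 was measured by serial dilution in Mueller–Hinton Broth 2 at a bacterial load of 3.0 × 10^5 cfu/mL. Cultures were kept at 37 °C and growth was read every 24 h for 5 days. The experiment was done three times, and MIC and bactericidal concentrations were determined.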

[5] = system: Enterococcus faecalis ATCC 2921; assay: as above; format: cell-based; settings: average of three ± SD, - means non-active; for MIC / MBC: Enterococcus faecalis, ATCC2921, Ef; for MIC: read-out: Minimum Inhibitory Concentration (MIC), Ef; for MBC: read-out: Minimum Bactericidal and Fungicidal Concentration (MBC, MFC), Ef
Outline: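 Antibacterial activity against Enterococcus faecalis ATCC 2921 was assessed by serial dilution in Mueller–Hinton Broth 2 with a bacterial load of 3.0 × 10^5 cfu/mL. Cultures were incubated at 37 °C, with growth recorded every 24 h for 5 days, and the experiment was performed three times.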

[6] = system: methicillin-resistant S. aureus MRSA-2; assay: as above; format: cell-based, Staphylococcus aureus; settings: - means non-active
Outline: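 Antimicrobial activity against methicillin-susceptible Staphylococcus aureus MRSA-2, a beta-lactam-resistant clinical isolate from a sinusitis patient at the Republican Clinical Hospital (Kazan), was assessed by serial dilution in Mueller–Hinton Broth 2. The inoculum was 3.0 × 10^5 cfu/mL. Cultures were incubated at 37 °C and read every 24 h for 5 days, in three repeat experiments.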

[7] = system: Escherichia coli ATCC 25922; assay: as above; format: cell-based; settings: average of three ± SD, - means non-active; for MIC: Escherichia coli, ATCC25922, Ec, read-out: Minimum Inhibitory Concentration (MIC), Ec
Outline: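 Compounds were serially diluted in Mueller–Hinton Broth 2 and inoculated at 3.0 × 10^5 cfu/mL. Cultures were then incubated at 37 °C with growth recorded daily for 5 days. The MIC was taken as the minimum concentration inhibiting growth, from three experiments.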

[8] = system: Escherichia coli ATCC 25922; assay: as above; format: cell-based; settings: average of three ± SD, - means non-active; for MBC: Escherichia coli, ATCC25922, Ec, read-out: Minimum Bactericidal and Fungicidal Concentration (MBC, MFC), Ec
[9] = system: methicillin-resistant S. aureus MRSA-1; assay: as above; format: cell-based, Staphylococcus aureus; settings: - means non-active; for Minimum Inhibitory Concentration (MIC), MRSA-1 / MIC: MRSA-1 (resistant to fluoroquinolones and beta-lactams); for MIC: Staphylococcus aureus, MRSA, read-out: Minimum Inhibitory Concentration (MIC), MRSA-1
Outline: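 Antimicrobial activity against methicillin-susceptible Staphylococcus aureus MRSA-1, a hospital isolate from a chronic tonsillitis patient that is resistant to fluoroquinolones and beta-lactams, was determined by serial dilution in Mueller–Hinton Broth 2. The bacterial load was 3.0 × 10^5 cfu/mL, incubation was at 37 °C, and growth was recorded every 24 h for 5 days.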

[10] = system: Candida albicans ATCC 10231; assay: Fungicidal activity, serial dilution technique; format: cell-based; settings: average of three ± SD, - means non-active
Outline: (§1)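 Serial dilution in Mueller–Hinton Broth 2 with an inoculum of 3.0 × 10^5 cfu/mL, 37 °C, read every 24 h for 5 days; three repeats. MIC is the lowest concentration inhibiting visible growth of the test organism.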

[11] = system: Trichophyton mentagrophytes var. gypseum 1773; assay: Fungicidal activity, serial dilution technique; format: cell-based; settings: Tm; average of three ± SD; - means non-active
Outline: as §1

[12] = system: Pseudomonas aeruginosa ATCC 9027; assay: Antimicrobial activity, serial dilution technique in Mueller–Hinton Broth 2; format: cell-based; settings: average of three ± SD, - means non-active
[13] = MRSA-2 (resistant to beta-lactams)

SMILES: CC(C)(C)[P+](C)(C(C)(C)C)C(C)(C)C [Compound 1a]
HC50 (concentration that causes 50% hemolysis of erythrocytes) [1]: > 125 µg/mL
IC50 [2]: > 100 µg/mL

SMILES: CC[P+](C(C)(C)C)(C(C)(C)C)C(C)(C)C [Compound 2a]
HC50 (concentration that causes 50% hemolysis of erythrocytes) [1]: > 125 µg/mL
IC50 [2]: > 100 µg/mL

SMILES: CCC[P+](C(C)(C)C)(C(C)(C)C)C(C)(C)C [Compound 3a]
HC50 (concentration that causes 50% hemolysis of erythrocytes) [1]: > 125 µg/mL
IC50 [2]: > 100 µg/mL

SMILES: CCCC[P+](C(C)(C)C)(C(C)(C)C)C(C)(C)C [Compound 4a]
HC50 (concentration that causes 50% hemolysis of erythrocytes) [1]: > 125 µg/mL
IC50 [2]: > 100 µg/mL

SMILES: CCCCC[P+](C(C)(C)C)(C(C)(C)C)C(C)(C)C [Compound 5b]
HC50 (concentration that causes 50% hemolysis of erythrocytes) [1]: > 125 µg/mL
IC50 [2]: > 100 µg/mL

SMILES: CCCCCC[P+](C(C)(C)C)(C(C)(C)C)C(C)(C)C [Compound 6a]
MIC [3]: 125 ± 11 µg/mL
HC50 (concentration that causes 50% hemolysis of erythrocytes) [1]: > 125 µg/mL
IC50 [2]: > 100 µg/mL

SMILES: CCCCCC[P+](C(C)(C)C)(C(C)(C)C)C(C)(C)C [Compound 6b]
Minimum Inhibitory Concentration (MIC), Sa [3]: 250 ± 19 µg/mL
HC50 (concentration that causes 50% hemolysis of erythrocytes) [1]: > 125 µg/mL
IC50 (concentration that causes the death of 50% of the cells) [2]: > 100 µg/mL

SMILES: CCCCCCC[P+](C(C)(C)C)(C(C)(C)C)C(C)(C)C [Compound 7a]
MIC [3]: 62.5 ± 5.5 µg/mL
MIC [4]: 125 ± 10 µg/mL
MIC [5]: 125 µg/mL
HC50 (concentration that causes 50% hemolysis of erythrocytes) [1]: > 125 µg/mL
IC50 [2]: > 100 µg/mL

SMILES: CCCCCCC[P+](C(C)(C)C)(C(C)(C)C)C(C)(C)C [Compound 7b]
MBC [3]: 62.5 µg/mL
HC50 (concentration that causes 50% hemolysis of erythrocytes) [1]: > 125 µg/mL
IC50 (concentration that causes the death of 50% of the cells) [2]: > 100 µg/mL

SMILES: CCCCCCCC[P+](C(C)(C)C)(C(C)(C)C)C(C)(C)C [Compound 8a]
MIC ([6]; Staphylococcus aureus, MRSA, MRSA-2 (resistant to beta-lactams), read-out: Minimum Inhibitory Concentration (MIC), MRSA-2): 31.3 µg/mL
MBC [3]: 62.5 µg/mL
MIC [4]: 31.3 µg/mL
MIC [7]: 125 µg/mL
MIC [5]: 62.5 µg/mL
HC50 (concentration that causes 50% hemolysis of erythrocytes) [1]: > 125 µg/mL
IC50 [2]: > 100 µg/mL
MBC [8]: 125 µg/mL

SMILES: CCCCCCCC[P+](C(C)(C)C)(C(C)(C)C)C(C)(C)C [Compound 8b]
Minimum Inhibitory Concentration (MIC), MRSA-1 [9]: 31.3 µg/mL
Minimum Bactericidal and Fungicidal Concentration (MBC, MFC), Sa [3]: 31.3 µg/mL
Minimum Inhibitory Concentration (MIC), Sa [3]: 31.3 µg/mL
MBC [5]: 125 µg/mL
HC50 (concentration that causes 50% hemolysis of erythrocytes) [1]: > 125 µg/mL
IC50 (concentration that causes the death of 50% of the cells) [2]: > 100 µg/mL

SMILES: CCCCCCCCC[P+](C(C)(C)C)(C(C)(C)C)C(C)(C)C [Compound 9a]
MIC [9]: 7.8 µg/mL
MBC [3]: 15.6 µg/mL
MIC [3]: 7.8 µg/mL
MBC [4]: 125 µg/mL
MIC [7]: 125 µg/mL
MBC [5]: 125 µg/mL
MIC [5]: 62.5 µg/mL
HC50 (concentration that causes 50% hemolysis of erythrocytes) [1]: > 125 µg/mL
IC50 [2]: > 100 µg/mL
MBC [8]: 125 µg/mL

SMILES: CCCCCCCCC[P+](C(C)(C)C)(C(C)(C)C)C(C)(C)C [Compound 9b]
Minimum Inhibitory Concentration (MIC), MRSA-2 [6, 13]: 31.3 µg/mL
Minimum Bactericidal and Fungicidal Concentration (MBC, MFC), Sa [3]: 15.6 µg/mL
Minimum Inhibitory Concentration (MIC), Bc [4]: 31.3 µg/mL
Minimum Inhibitory Concentration (MIC), Ec [7]: 250 µg/mL
Minimum Bactericidal and Fungicidal Concentration (MBC, MFC), Ef [5]: 125 µg/mL
Minimum Inhibitory Concentration (MIC), Ef [5]: 31.3 µg/mL
HC50 (concentration that causes 50% hemolysis of erythrocytes) [1]: > 125 µg/mL
IC50 (concentration that causes the death of 50% of the cells) [2]: > 100 µg/mL
Minimum Bactericidal and Fungicidal Concentration (MBC, MFC), Ec [8]: 250 µg/mL

Minimum Inhibitory Concentration (MIC), MRSA-2 [6, 13]: 1.9 ± 0.1 µg/mL
MIC [9]: 7.8 ± 0.6 µg/mL
Minimum Inhibitory Concentration (MIC), Pa [12]: 31.3 ± 2.4 µg/mL
MIC [3]: 3.9 ± 0.2 µg/mL
Minimum Inhibitory Concentration (MIC), Bc [4]: 15.6 ± 1.3 µg/mL
MIC [7]: 62.5 ± 5.5 µg/mL
MIC [5]: 3.9 ± 0.2 µg/mL
SMILES: CCCCCCCCCCCCCCCCCCCC[P+](C(C)(C)C)(C(C)(C)C)C(C)(C)C [Compound 20a]
MBC ([6]; Staphylococcus aureus, MRSA, MRSA-2, read-out: Minimum Bactericidal and Fungicidal Concentration (MBC, MFC), MRSA-2): 15.6 ± 1.2 µg/mL
Minimum Bactericidal and Fungicidal Concentration (MBC, MFC), MRSA-1 [9]: 31.3 ± 2.7 µg/mL
Minimum Inhibitory Concentration (MIC), Ca ([10]; Ca): 31.3 ± 2.5 µg/mL
MBC ([10]; Candida albicans, ATCC10231, Ca, read-out: Minimum Bactericidal and Fungicidal Concentration (MBC, MFC), Ca): 62.5 ± 5.7 µg/mL
Minimum Bactericidal and Fungicidal Concentration (MBC, MFC), Tm [11]: 31.3 ± 2.5 µg/mL
Minimum Inhibitory Concentration (MIC), Tm [11]: 31.3 ± 2.3 µg/mL
MBC ([12]; Pseudomonas aeruginosa, ATCC9027, Pa, read-out: Minimum Bactericidal and Fungicidal Concentration (MBC, MFC), Pa): 125 ± 11 µg/mL
MBC [3]: 3.9 ± 0.2 µg/mL
MBC [4]: 31.3 ± 2.6 µg/mL
MBC [5]: 7.8 ± 0.6 µg/mL
MBC [8]: 62.5 ± 5.5 µg/mL

Minimum Inhibitory Concentration (MIC), MRSA-2 [6, 13]: 7.8 ± 0.6 µg/mL
Minimum Inhibitory Concentration (MIC), MRSA-1 [9]: 15.6 ± 1.3 µg/mL
Minimum Inhibitory Concentration (MIC), Pa [12]: 125 ± 11 µg/mL
Minimum Inhibitory Concentration (MIC), Sa [3]: 3.9 ± 0.2 µg/mL
Minimum Inhibitory Concentration (MIC), Bc [4]: 62.5 ± 5.5 µg/mL
Minimum Inhibitory Concentration (MIC), Ec [7]: 62.5 ± 5.7 µg/mL
Minimum Inhibitory Concentration (MIC), Ef [5]: 7.8 ± 0.6 µg/mL
SMILES: CCCCCCCCCCCCCCCCCCCC[P+](C(C)(C)C)(C(C)(C)C)C(C)(C)C [Compound 20b]
Minimum Bactericidal and Fungicidal Concentration (MBC, MFC), MRSA-2 ([6]; MRSA-2): 7.8 ± 0.7 µg/mL
Minimum Bactericidal and Fungicidal Concentration (MBC, MFC), MRSA-1 [9]: 15.6 ± 1.2 µg/mL
Minimum Bactericidal and Fungicidal Concentration (MBC, MFC), Ca ([10]; Ca): 31.3 ± 2.1 µg/mL
Minimum Inhibitory Concentration (MIC), Ca ([10]; Ca): 15.6 ± 1.3 µg/mL
Minimum Bactericidal and Fungicidal Concentration (MBC, MFC), Tm [11]: 250 ± 18 µg/mL
Minimum Inhibitory Concentration (MIC), Tm [11]: 250 ± 18 µg/mL
Minimum Bactericidal and Fungicidal Concentration (MBC, MFC), Sa [3]: 3.9 ± 0.3 µg/mL
Minimum Bactericidal and Fungicidal Concentration (MBC, MFC), Ef [5]: 15.6 ± 1.3 µg/mL
Minimum Bactericidal and Fungicidal Concentration (MBC, MFC), Ec [8]: 62.5 ± 5.5 µg/mL
